Data as given in patent US11155616B2, “Drug regulated transgene expression” (Seattle Children's Hospital, priority 2014, dated 2021).

Columns and labels:
TamR-tf (HEA3) [1] = assay: On and off rate kinetics of ZsGreen expression in transduced Jurkat cells (4OHT washout and re-stimulation); type: cell-based, human
Text: (§1) Jurkat cells were transduced at a MOI of 5 with lentivirus packaging constructs described above in which a dual packaging approach in which each plasmid is co-transfected into 293T cells during lentiviral production. This construct utilized molar ratio of 1:2 of construct A to construct B. Construct A encodes the chimeric transcription factor HEA3 linked via a ribosomal cleavage sequence, T2A, to the tracking and selection marker EGFRt. Construct B encodes the synthetic, HEA3-responsive promoter, 7xHBD/mE1b which regulates expression of the transgene ZsGreen-DR1, a short half-life green fluorescent reporter gene.
The population was subjected to 500 nM 4OHT stimulation for 48 hours, and then sorted for ZsGreen+cells utilizing FACS, yielding a >99% ZsGreen+population on immediate post-sort analysis. Cells were subsequently expanded in culture for 3 weeks, and then prepared for kinetic studies. Cells were divided into 3 treatment groups: (1) no 4OHT (2) 200 nM 4OHT (added every 48 hours) (3) 24 hour 200 nM 4OHT, followed by washout 1× in PBS, then culture in 4OHT free media for 14 days, followed by a 24 hour re-stimulation with 200 nm 4OHT, and then washout in 1×PBS. At each time point, samples were harvested and analyzed via flow cytometry for ZsGreen expression. Results are shown in FIG. 3 and are presented as % ZsGreen+.

TamR-tf (HEA3) [2] = assay: 4OHT dose response of ZsGreen expression in transduced Jurkat cells; type: cell-based, human; conditions: 4OHT 0 nM-1000 nM, flow cytometry (FIG. 2)
Text: as §1
Cells were harvested and were then subjected to treatment with 4OHT with concentrations ranging from 0 nM-1000 nM, as indicated. Samples were harvested, washed, and stained with EGFRt-biotin, followed by strepavidin-APC, and then analyzed by flow cytometry for ZsGreen expression.

TamR-tf (HEA3) [3] = assay: ZsGreen expression by flow cytometry in Jurkat cells transduced with dual packaged TamR ZsGreen lentivirus (constructs A and B); type: cell-based, human; conditions: 500 nM 4OHT for 24 hours, flow cytometry (FIG. 1)
Text: An alternative of the TamR-LV system allows for constitutive HEA3 expression and inducible expression of either ZsGreen or chimeric antigen receptors, permitting kinetic analysis and biological effect controlled in an “ON” and “OFF” manner by the presence or absence of tamoxifen. For this, two constructs were used: 1) HEA-3 is driven by the human EF1 a promoter and linked to the constructed truncated EGFR (EGFRt) transmembrane marker protein by a T2A skip-linker sequence and cloned into a third generation epHIV7 self-inactivating lentivirus packaging plasmid (construct A). (See FIGS. 9A, 9B and 9C; SEQ ID NO: 39; Table 1: SEQ ID NO: 8 and SEQ ID NO: 9) and 2) 7xHBD/[…] controls tamoxifen-dependent expression of ZsGreen cloned into pcDNA3.1(−) which was engineered to lack the commercially used CMV promoter (construct B) (See Table 12; SEQ ID NO: 41). ZsGreen1 is a human codon-optimized ZsGreen variant that encodes the brightest commercially available green fluorescent protein. (Available from Clontech).
Jurkat cells were transduced at a MOI of 5 with lentivirus packaging constructs described above in which a dual packaging approach in which each plasmid is co-transfected into 293T cells during lentiviral production. […]

TamR-tf (HEA3) [4] = assay: ZsGreen expression in primary CD8 central memory cells transduced with constructs A and B; type: cell-based, human; conditions: inducer plus antiCD3/anti-CD28 beads (FIG. 5B)
Description: CD8 central memory cells were obtained from peripheral blood by selecting cells through flow cytometry for markers CD8, and CD62L and negative for CD45RO. Cells were cultured with anti-CD3/anti-CD28 beads for 3 days.
as §1, with “After 3 days, CD4 or CD8 central memory” for “Jurkat”
(§2) On day 21 after transduction, cells were enriched for EGFRt, and subsequently expanded with feeder cells, IL2, and IL15. Following expansion, cells were divided into 3 treatment groups, 4OHT alone (A), 4OHT combined with CD3/CD28 bead cotreatment (B) or 4OHT alone for 48 hours, followed by addition of CD3/CD28 beads (C). […] All samples were harvested at indicated time points following 4OHT treatment, stained with EGFRt-biotin antibody, followed by SA-APC, and analyzed for flow cytometry. […]

TamR-tf (HEA3) [5] = assay: Inducible Her2t expression in human CD4 central memory T cells transduced with TamR CD19CAR LV (with DHFRdm); type: cell-based; conditions: 500 nM 4OHT for 24 hours plus antiCD3/antiCD28 beads (FIG. 8)
Description: CD4 central memory cells were obtained from peripheral blood by selecting cells through flow cytometry for markers CD4, and CD62L and negative for CD45RO. Cells were cultured anti-CD3/anti-CD28 beads for 3 days. After 3 days, CD4 Central memory cells were transduced at a MOI of 5 with a lentivirus which packages constructs A and B. (FIG. 8B). Construct A encodes the chimeric transcription factor HEA3 linked via a ribosomal cleavage sequence, T2A, to the tracking and selection marker EGFRt. (See FIGS. 9A, 9B and 9C; SEQ ID NO: 39; Table 1; SEQ ID NO: 8 and SEQ ID NO: 9). […] (See Table 12; SEQ ID NO: 41; Table 2 SEQ ID NO: 10; FIG. 11; SEQ ID NO: 44; FIG. 12; SEQ ID NO: 46).
On day 21 after transduction, cells were enriched for EGFRt utilizing magnetic bead selection, and subsequently expanded with irradiated feeder cells, IL2, and IL15. Two weeks after expansion, cells were cryopreserved. In the experiment depicted above, CD4+ CEM cells which were mock transduced, or CD4+TamR CD19CAR LV were thawed, placed in culture with CD3/CD28 beads, IL-2, IL-15. CD4+TamRCD19CAR LV were treated or not with 500 nM 4OHT for 24 hours. All samples were harvested washed, then stained with an EGFRt-APC antibody and Her2t-biotin, followed by SA-PE, and analyzed via flow cytometry.

TamR-tf (HEA3) [6] = assay: Inducible CD19CAR/Her2t expression in Jurkat cells transduced with TamR-CD19CAR LV (flow cytometry and western blot); type: cell-based, human; conditions: construct not including DHFRdm, 500 nM 4OHT (FIG. 6)
Text: Construction of the vector was accomplished by dual packaging of transfer plasmids housing constructs as described above at a plasmid molar ratio of 1:1. (See FIGS. 6C and 7C) Construct A under the constitutive EF-lalpha promoter encodes TamR-tf (HEA3) linked via a ribosomal cleavage sequence, T2A, to the tracking and selection marker EGFRt. (See FIGS. 9A, 9B and 9C; SEQ ID NO: 39, Table 1: SEQ ID NO: 8 and SEQ ID NO: 9) Construct B contains the 7xHBD/mE1b promoter with downstream transgene cDNA including CD19CAR linked via 2a cleavage sequence to Her2t, a tracking and selection marker. (See Table 12; SEQ ID NO: 41; Table 2 SEQ ID NO: 10; FIG. 11; SEQ ID NO: 44). Another construct was prepared adding an additional selective marker DHFRdm (See FIG. 12; SEQ ID NO: 46).
Human Jurkat cells were transduced at a MOI of 2, then were expanded in culture, and selected for EGFRt+ cells via magnetic bead selection. After further expansion, cells were either treated with vehicle alone (EtOH) or 500 nM 4OHT, and harvested for flow cytometry. Samples were stained with EGFRt-APC antibody and Herceptin-biotin, followed by SA PE. Samples were also prepared for western blot, the primary antibody used is an anti-CD247 mouse mAb which recognizes the intracellular CD3 zeta chain on the CD19CAR (˜48 kDa). The endogenous CD3 zeta migrates at ˜23 kDa.

TamR-tf (HEA3) [7] = assay: Inducible CD19CAR/Her2t expression in Jurkat cells transduced with TamR CD19CAR LV containing DHFRdm (flow cytometry and western blot); type: cell-based, human; conditions: construct including DHFRdm, 500 nM 4OHT (FIG. 7)
Description: Construction of TamR CD19CAR LV was done through dual packaging of constructs A and B. Construct A contains HEA3 linked via a ribosomal cleavage sequence, T2A, to the tracking and selection marker EGFRt.
Cells were transduced with TamR CD19CAR LV at a MOI of 1, expanded in culture, selected for EGFRt via magnetic bead selection. Following further expansion cells were treated with […] alone (EtOH) or 500 nM 4OHT, and harvested for flow cytometry, (upper panel). FIG. 7. Samples were stained with EGFRt-APC antibody and Herceptin-biotin, followed by SA-PE. Parental (untransduced Jurkat) is shown for comparison. Samples were also prepared for western blot, the primary antibody used is an anti-CD247 mouse mAb which recognizes the intracellular CD3 zeta chain on the CD19CAR (˜48 kDa). The endogenous CD3 zeta migrates at ˜23 kDa.

TamR-tf (HEA3) [8] = assay: ZsGreen expression in primary CD4 central memory cells transduced with constructs A and B; type: cell-based, human; conditions: inducer plus antiCD3/anti-CD28 beads (FIG. 4B)
Description: CD4 central memory cells were obtained from peripheral blood by selecting cells through flow cytometry for markers CD4, and CD62L and negative for CD45RO. Cells were cultured with anti-CD3/anti-CD28 beads for 3 days.
as §1, with “After 3 days, CD4 or CD8 central memory” for “Jurkat”
as §2

SMILES	ZsGreen expression after 4-OHT washout, % of the max ZsGreen activity (TamR-tf (HEA3) [1]; 200 nM 4OHT then washout, within 5 days (FIG. 3))	ZsGreen activity after 4-OHT is added back, % max activity (TamR-tf (HEA3) [1]; re-stimulation with 200 nM 4OHT, within 2 days (FIG. 3))	concentration effective to induce expression of the transgene (ZsGreen) (TamR-tf (HEA3) [2])	cells expressing ZsGreen (TamR-tf (HEA3) [3])	primary transduced CD8 cells expressing ZsGreen (TamR-tf (HEA3) [4])	primary cells expressing both EGFRt and Her2t (TamR-tf (HEA3) [5])	cells expressing both EGFRt and Her2t (TamR-tf (HEA3) [6])	cells expressing both EGFRt and Her2t (TamR-tf (HEA3) [7])	primary transduced CD4 cells expressing ZsGreen (TamR-tf (HEA3) [8])
CC/C(=C(\c1ccc(O)cc1)c1ccc(OCCN(C)C)cc1)c1ccccc1 [4-OHT, 4-hydroxytamoxifen]	less than 10%	about 100%	≥ 200 nM	about 50%					
CC/C(=C(\c1ccccc1)c1ccc(OCCN(C)C)cc1)c1ccccc1 [tamoxifen, 2-(4-((1Z)-1,2-diphenyl-1-butenyl)phenoxy)-N,N-dimethyl-ethanamine]					About 37%	about 14.7%	about 42.6%	about 7.5%	About 70%
